Reference: PMC12562640, “Investigating Amphoteric 3,4′-Biscoumarin-Based ortho-[(Dialkylamino)methyl]phenols as Dual MAO and ChE Inhibitors” (International Journal of Molecular Sciences, 2025)
≈ marks a conversion by molar mass, not a printed value. Where “and” joins values, the source holds several entries; their conditions need not be identical. Equal entries are not always repeated. Entries after “also recorded” stand apart in the source; their conditions may differ. Where two headings read alike, the source gives them in different places.

Columns and labels:
[1] = biological target: T1, electric eel eeAChE (Electrophorus electricus, UniProt O42275); assay: biochemical; conditions: for IC50: mean ± SD of three independent determinations, ~10 means 50–60% inhibition at 10 µM
T1 construct: Acetylcholinesterase from electric eel and butyrylcholinesterase from equine serum (Sigma Aldrich) were employed; purchased Sigma Aldrich; host or cells: electric eel (natural source)

[2] = Kinetic solubility in aqueous buffers (RP-HPLC); type: physicochemical; conditions: for solubility at 2 h: PBS buffer, 25 °C, pH 7.4, aqueous buffer, kinetic from dmso stock, read-out: Solubility Exp.; for experimental solubility in PBS pH 7.4, times higher than calculated with the ESOL model: PBS pH 7.4 vs ESOL
Description: Water solubility and lipophilicity parameters were measured following previously reported methods. […] The mixture was then separated by centrifugation at 2500 rpm for 3 min. Immediately after filtration, 100 µL of the filtrate was mixed with an equal volume of a 1:1 (v/v) DMSO and PBS (50 mM, pH 7.4, KCl 0.15 M) or HCl (0.01 M, pH 2, KCl 0.15 M) solution to prevent precipitation from the saturated solution and subsequently analyzed by HPLC. The peak area was compared to a calibration curve of the tested compound in MeOH. The analytical parameters were set as follows. Mobile phase: MeOH/water pH 2.8 (acetic acid 0.5% v/v) at different percentages depending on the retention time of each test compound; stationary phase: Phenomenex, Kinetex 5 µ, C8, (150 × 3 mm); flux: […]; injection: 2 µL; λ 330 nm. The analyses were performed on the Agilent HPLC 1260 Infinity Series Integrated System (Agilent Technologies, Milan, Italy).

[3] = biological target: T2, human MAO-A (Homo sapiens, UniProt P21397); assay: Inhibition kinetics and time course of MAO-A inhibition; type: biochemical
T2 construct: purchased Sigma Aldrich; host or cells: insect cells infected with baculovirus (microsomes)
T2 sequence (P21397 1-527): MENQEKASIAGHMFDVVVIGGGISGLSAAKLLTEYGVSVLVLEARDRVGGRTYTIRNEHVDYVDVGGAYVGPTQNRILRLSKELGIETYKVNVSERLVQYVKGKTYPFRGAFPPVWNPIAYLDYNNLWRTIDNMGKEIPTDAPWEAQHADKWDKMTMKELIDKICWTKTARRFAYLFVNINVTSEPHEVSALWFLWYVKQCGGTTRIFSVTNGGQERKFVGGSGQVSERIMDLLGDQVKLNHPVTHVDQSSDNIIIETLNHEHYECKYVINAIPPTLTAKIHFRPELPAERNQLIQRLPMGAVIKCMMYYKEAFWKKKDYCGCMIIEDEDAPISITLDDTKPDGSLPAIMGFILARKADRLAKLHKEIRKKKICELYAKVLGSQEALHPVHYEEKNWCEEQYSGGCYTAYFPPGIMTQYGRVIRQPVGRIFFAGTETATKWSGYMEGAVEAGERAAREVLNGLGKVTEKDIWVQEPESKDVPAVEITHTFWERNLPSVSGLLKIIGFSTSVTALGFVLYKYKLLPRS
From the text: For the sake of clarity, the position of the Mannich base (-CH2NR2) on the main coumarin core will be indicated as C8, whereas the positions of Cl or Br and OMe on the 4-coumarin-3-yl moiety will be indicated as C6′ and C8′.
Time courses of MAO-A inhibition by 2b and 5b, using a spectrophotometric assay measuring the absorbance of 4-
(1 picture or pasted object on this page, not shown here)

[4] = Lipophilicity by RP-HPLC (log k'w); type: physicochemical; conditions: C18, extrapolated to 100% water mobile phase
Description: The lipophilicity of the five compounds in Table 4 was assessed by calculation and experimental approaches. As a calculated lipophilicity parameter (log Pcalc), we took from the SwissADME free website (http://www.swissadme.ch) the ‘Consensus Log Po/w’, that is, the arithmetic mean of octanol/water log Ps calculated by five methods (iLOGP, XLOGP3, WLOGP, MLOGP, and SILICOS-IT).
The lipophilicity parameters were determined by an RP-HPLC technique. In short, methanolic solutions of the examined compounds (1 mg·mL^−1) were analyzed by the Agilent 1260 infinite HPLC system (Agilent Technologies, Milan, Italy) equipped with a diode array detector (DAD), using a Phenomenex C18-column (Kinetex 5 μ, 100 Å, 150 × 3 mm) as the stationary phase and MeOH/water buffer mobile phases with different v/v composition (i.e., mobile phases containing 0.05 increments of MeOH volume fractions in 10 mM ammonium formate buffer at pH 4.5; φMeOH ranging between 0.70 and 0.20). The chromatographic measurements were carried out at 25 ± 1 °C, flow rate of 0.5 mL·min^−1, and detection at λ 330 nm. The log of capacity factors of each compound at different mobile phase compositions was calculated (log k′ = log (tR − t0)/t0, where tR represents the retention time of the solute and t0 is the column dead time). For each compound, the equation of the linear relationship between log k′ and φMeOH (R^2 > 0.991) on at least five datapoints, each from duplicate, was derived by regression analysis and the intercept at the y-axis (i.e., φMeOH = 0) calculated as the lipophilicity parameter log k′w.

[5] = biological target: human huAChE (Homo sapiens, UniProt P22303); assay: biochemical; type: biochemical; conditions: for inhibition at 10 µM: at 10 µM concentration, read-out: huAChE inhibition class
Description: The inhibition of human huAChE was also evaluated for five compounds.
(§1) Cholinesterase inhibition assays were carried out using the Ellman spectrophotometric method, modified for a 96-well plate format. Acetylcholinesterase from electric eel and butyrylcholinesterase from equine serum (Sigma Aldrich) were employed. The measurements were performed in triplicate using clear, flat-bottom polystyrene plates (Greiner Bio-One).

[6] = biological target: T3, horse serum eqBChE (Equus caballus, UniProt P81908); assay: biochemical; type: biochemical; conditions: at 10 µM concentration
T3 construct: Acetylcholinesterase from electric eel and butyrylcholinesterase from equine serum (Sigma Aldrich) were employed; purchased Sigma Aldrich; host or cells: equine serum
Description: as §1

[7] = biological target: T4, human huMAO-B (Homo sapiens, UniProt P27338); assay: biochemical; type: biochemical
T4 construct: purchased Sigma Aldrich; host or cells: insect cells infected with baculovirus (microsomes)
T4 sequence (P27338 1-520): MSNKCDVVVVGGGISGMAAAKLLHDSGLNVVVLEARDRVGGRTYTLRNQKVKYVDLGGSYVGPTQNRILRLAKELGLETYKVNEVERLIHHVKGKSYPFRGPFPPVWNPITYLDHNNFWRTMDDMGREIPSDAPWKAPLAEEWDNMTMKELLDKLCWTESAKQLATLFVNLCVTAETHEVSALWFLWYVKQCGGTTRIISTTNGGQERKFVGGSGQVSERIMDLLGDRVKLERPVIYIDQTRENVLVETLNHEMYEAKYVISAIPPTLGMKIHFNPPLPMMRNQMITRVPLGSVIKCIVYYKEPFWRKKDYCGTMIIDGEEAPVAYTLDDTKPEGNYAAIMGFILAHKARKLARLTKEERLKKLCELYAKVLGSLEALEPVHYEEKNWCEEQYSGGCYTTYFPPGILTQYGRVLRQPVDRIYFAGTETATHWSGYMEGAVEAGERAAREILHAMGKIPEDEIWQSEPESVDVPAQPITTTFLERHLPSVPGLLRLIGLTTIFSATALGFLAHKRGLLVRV
Description: (§2) The inhibition assays of human monoamine oxidases were conducted using a fluorescence-based method with kynuramine as a non-selective substrate for each isoform, MAO-A/B [44, 45, 46]. Recombinant human MAO-A and MAO-B (microsomes from insect cells infected with baculovirus; Sigma Aldrich, St. Louis, MO, USA) (Merk Life Science S.r.l., Milan, Italy) were used. The measurements were performed in triplicate in black round-bottom polystyrene 96-well plates (Greiner Bio-One, Kremsmünster, Austria). […] In the MAO inhibition assays, all compounds were initially screened at a concentration of 10 µM. Each of them was preincubated at 37 °C for 20 min with 50 µM kynuramine in a phosphate buffer (PBS, 0.1 M, pH 8.0), adjusted to 0.39 osmolarity with KCl. After adding recombinant human MAO-A/B (250 U/mg and 59 U/mg, respectively) and incubating for another 30 min, NaOH was added. The fluorescence was measured at excitation/emission wavelengths of 310/400 nm. […] The IC50 is reported as the mean ± SD of three independent experiments, each performed in duplicate.

[8] = biological target: T2, human MAO-A; assay: biochemical; type: biochemical
Description: as §2

[9] = Hydrolytic stability in aqueous buffers; conditions: 0.01 M HCl (pH 2.0) and 0.05 M PBS (pH 7.4), 37 ± 1 °C, 1 h, 100 μM
Description: Sample solutions at 100 μM (DMSO as the cosolvent, 1% v/v) were incubated at 37 ± 1 °C for 1 h, following shaking of the solution on an orbital shaker at 250 rpm and monitoring by RP-HPLC.

[10] = PBS (50 mM, pH 7.4, 0.15 M KCl) at 25 ± 1 °C, n = 3
[11] = read-out: eqBChE inhibition class
[12] = at 10 µM concentration, mean ± SD
[13] = mean ± SD of three independent determinations, ~10 means 50–60% inhibition at 10 µM

Chain of human huAChE (P22303 32-614): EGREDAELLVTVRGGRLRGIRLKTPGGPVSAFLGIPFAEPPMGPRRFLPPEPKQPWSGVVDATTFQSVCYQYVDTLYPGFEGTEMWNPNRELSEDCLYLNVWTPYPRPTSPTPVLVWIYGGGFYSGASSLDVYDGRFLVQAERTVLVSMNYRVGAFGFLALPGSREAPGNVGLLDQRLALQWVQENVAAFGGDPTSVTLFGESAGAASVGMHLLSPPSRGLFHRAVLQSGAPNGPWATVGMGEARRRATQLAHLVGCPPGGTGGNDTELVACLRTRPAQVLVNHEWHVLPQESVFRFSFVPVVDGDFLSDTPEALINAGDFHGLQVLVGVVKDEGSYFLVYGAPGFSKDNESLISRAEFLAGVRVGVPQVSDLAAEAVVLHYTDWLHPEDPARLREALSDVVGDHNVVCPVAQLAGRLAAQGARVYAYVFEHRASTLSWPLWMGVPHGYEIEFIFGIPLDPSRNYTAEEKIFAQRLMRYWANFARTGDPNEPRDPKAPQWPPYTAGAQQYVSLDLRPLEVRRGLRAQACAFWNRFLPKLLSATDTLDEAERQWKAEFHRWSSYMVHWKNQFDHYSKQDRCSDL
T1 sequence (O42275 24-633): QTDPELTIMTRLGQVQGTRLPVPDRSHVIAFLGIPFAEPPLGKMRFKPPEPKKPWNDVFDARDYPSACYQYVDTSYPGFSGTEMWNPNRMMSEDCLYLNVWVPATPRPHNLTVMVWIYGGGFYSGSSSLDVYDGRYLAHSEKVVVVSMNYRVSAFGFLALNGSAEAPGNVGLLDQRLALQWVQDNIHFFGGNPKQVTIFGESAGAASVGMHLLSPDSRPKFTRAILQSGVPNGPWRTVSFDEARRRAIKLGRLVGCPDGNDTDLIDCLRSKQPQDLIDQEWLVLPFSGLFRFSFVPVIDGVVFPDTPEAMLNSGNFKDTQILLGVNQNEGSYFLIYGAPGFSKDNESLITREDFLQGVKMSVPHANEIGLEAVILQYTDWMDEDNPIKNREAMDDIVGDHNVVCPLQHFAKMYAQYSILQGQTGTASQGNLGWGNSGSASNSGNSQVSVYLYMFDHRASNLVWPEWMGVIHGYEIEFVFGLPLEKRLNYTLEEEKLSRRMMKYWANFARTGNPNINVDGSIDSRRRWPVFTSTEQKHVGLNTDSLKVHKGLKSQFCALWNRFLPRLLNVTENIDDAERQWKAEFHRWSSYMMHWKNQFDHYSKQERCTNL
T3 sequence (P81908 whole entry): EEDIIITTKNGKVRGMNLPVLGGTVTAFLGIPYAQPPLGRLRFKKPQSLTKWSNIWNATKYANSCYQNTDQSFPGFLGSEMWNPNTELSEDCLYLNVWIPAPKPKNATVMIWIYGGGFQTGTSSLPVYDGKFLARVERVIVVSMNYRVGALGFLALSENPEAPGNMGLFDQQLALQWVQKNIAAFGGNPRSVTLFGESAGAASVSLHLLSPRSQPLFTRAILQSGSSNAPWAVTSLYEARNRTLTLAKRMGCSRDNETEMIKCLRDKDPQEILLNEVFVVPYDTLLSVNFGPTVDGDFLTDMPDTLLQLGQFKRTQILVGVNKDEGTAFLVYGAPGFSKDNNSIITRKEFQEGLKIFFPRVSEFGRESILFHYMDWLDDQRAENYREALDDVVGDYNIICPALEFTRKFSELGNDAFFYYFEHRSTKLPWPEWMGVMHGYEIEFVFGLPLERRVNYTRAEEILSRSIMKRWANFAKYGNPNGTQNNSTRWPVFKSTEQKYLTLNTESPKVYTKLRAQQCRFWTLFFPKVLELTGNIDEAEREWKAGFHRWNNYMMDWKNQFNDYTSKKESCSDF

| SMILES | IC50 [1] | solubility at 2 h [2, 10] [µM] | Log k’w (polycratic capacity factor) [4] | inhibition at 10 µM [5] [%] | inhibition at 10 µM [6, 11] [%] | IC50 [7] [µM] | IC50 [8] [µM] | hydrolytic stability [9] | experimental solubility in PBS pH 7.4, times higher than calculated with the ESOL model [2] | huMAO-A IC50 [8, 13] | other results |
| --- | --- | --- | --- | --- | --- | --- | --- | --- | --- | --- | --- |
| CN(C)Cc1c(O)ccc2c(-c3cc4cc(Cl)ccc4oc3=O)cc(=O)oc12 [Compound 2b, 8-((dimethylamino)methyl)-4-(6-chloro-2-oxo-2H-chromen-3-yl)-7-hydroxy-2H-chromen-2-one] | ~10 µM | 147 (≈ 58.5 µg/mL) | 2.45 | < 10 | < 10 | ~10 | 1.49 ± 0.49 |  |  |  | mode of inhibition of MAO-A ([3]; Michaelis–Menten and Lineweaver–Burk plots): competitive; Ki ([3]; human MAO-A, competitive inhibition, read-out: inhibition constant (Ki) MAO-A): 0.272 µM; reversibility of MAO-A inhibition ([3]; time course, absorbance of 4-hydroxyquinoline at 316 nm, inhibitor close to IC50): reversible |
| CN(C)Cc1c(O)ccc2c(-c3cc4cc(Br)ccc4oc3=O)cc(=O)oc12 [Compound 2c, 8-((dimethylamino)methyl)-4-(6-bromo-2-oxo-2H-chromen-3-yl)-7-hydroxy-2H-chromen-2-one] |  | 141 (≈ 62.4 µg/mL) | 2.65 | < 10 | < 10 | ~10 | 2.23 ± 0.22 | stable over 1 h | thirteen | single-digit micromolar | inhibition at 10 µM [1, 12]: 20% |
| CCN(CC)Cc1c(O)ccc2c(-c3cc4cc(Br)ccc4oc3=O)cc(=O)oc12 [Compound 3c, 8-((diethylamino)methyl)-4-(6-bromo-2-oxo-2H-chromen-3-yl)-7-hydroxy-2H-chromen-2-one] | < 10 µM and 1.56 µM |  | 2.89 |  |  |  | 3.04 ± 1.37 |  | fifty; also recorded: fiftyfold | single-digit micromolar | Solubility Exp. [2, 10]: 181 µM (≈ 85.1 µg/mL); water solubility relative to 2c ([2]; at pH 7.4): 1.3 fold; IC50 [5]: 4.27 ± 0.58 µM; inhibition at 10 µM ([6]; mean ± SD, read-out: eqBChE % inhibition): 37%; inhibition at 10 µM [7, 12]: 42% |
| CCCCN(C)Cc1c(O)ccc2c(-c3cc4cc(Br)ccc4oc3=O)cc(=O)oc12 [Compound 5c] |  |  |  |  |  |  |  | stable over 1 h |  | single-digit micromolar | eqBChE % inhibition ([6]; mean ± SD): [25 ± 11] %; IC50 [7, 13]: ~10 µM; IC50 [8, 13]: 2.52 ± 0.7 µM |
